What all share (test): relative viability (nuclei count vs DMSO), 5 days (fraction); higher = more cells survive
Compound in the assay “Quizartinib + Phenformin”: CC(C)(C)c1cc(NC(=O)Nc2ccc(-c3cn4c(n3)sc3cc(OCCN5CCOCC5)ccc34)cc2)no1 [Quizartinib] + N=C(N)NC(=N)NCCc1ccccc1 [Phenformin] (partner 250 µM)
In a few lines: (§1)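 Lung cancer cell lines, seeded in 1536-well plates, were treated the following day by pin tool with a single drug or with five library-drug doses (not always all listed) in √10 steps on top of a fixed anchor-drug dose. Cells were fixed and nuclei stained in one step after 5 days, and nuclei were counted. Relative viability is the nuclei count for treated wells divided by that for vehicle wells, reported as medians of duplicate plates.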

Compound in the assay “YM155 + Trametinib”: COCC[n+]1c2c(n(Cc3cnccn3)c1C)C(=O)c1ccccc1C2=O [YM155] + CC(=O)Nc1cccc(-n2c(=O)n(C3CC3)c(=O)c3c(Nc4ccc(I)cc4F)n(C)c(=O)c(C)c32)c1 [Trametinib] (partner 0.02 µM)
In a few lines:
as §1

Compound in the assay “YM155 + Pictilisib”: COCC[n+]1c2c(n(Cc3cnccn3)c1C)C(=O)c1ccccc1C2=O [YM155] + CS(=O)(=O)N1CCN(Cc2cc3nc(-c4cccc5[nH]ncc45)nc(N4CCOCC4)c3s2)CC1 [Pictilisib] (partner 1 µM)
In short, it runs like this:
as §1

Compound in the assay “YM155 + Vorinostat”: COCC[n+]1c2c(n(Cc3cnccn3)c1C)C(=O)c1ccccc1C2=O [YM155] + O=C(CCCCCCC(=O)Nc1ccccc1)NO [Vorinostat] (partner 1 µM)
In short, it runs like this:
as §1

For the cell line NCI-H647, the relative viability with Quizartinib + Phenformin (first compound 0.001 µM) came to 0.463; in the assay with Quizartinib + Phenformin (first compound 0.003162 µM) it was 0.591; with Quizartinib + Phenformin (first compound 0.01 µM), 0.569; with Quizartinib + Phenformin (first compound 0.03162 µM) it was 0.453; with Quizartinib + Phenformin (first compound 0.1 µM), 0.514; with YM155 + Trametinib (first compound 0.002 µM) it was 0.342. Moreover, the relative viability in the assay with YM155 + Trametinib (first compound 0.006325 µM) came out at 0.456; with YM155 + Trametinib (first compound 0.02 µM), 0.463; with YM155 + Trametinib (first compound 0.06325 µM), 0.472; with YM155 + Pictilisib (first compound 0.002 µM), 0.352; in the assay with YM155 + Pictilisib (first compound 0.006325 µM) it was 0.345; with YM155 + Pictilisib (first compound 0.02 µM), 0.399. Also, the relative viability with YM155 + Pictilisib (first compound 0.06325 µM) was found to be 0.213; with YM155 + Vorinostat (first compound 0.002 µM) it was 0.472; with YM155 + Vorinostat (first compound 0.006325 µM) it was 0.484; in the assay with YM155 + Vorinostat (first compound 0.02 µM) it was 0.755; with YM155 + Vorinostat (first compound 0.06325 µM) it was 0.388.
On to NCI-H650, for which the relative viability is 0.433 with Quizartinib + Phenformin (first compound 0.001 µM); 0.454 in the assay with Quizartinib + Phenformin (first compound 0.003162 µM); 0.409 with Quizartinib + Phenformin (first compound 0.01 µM); 0.399 with Quizartinib + Phenformin (first compound 0.03162 µM); 0.476 in the assay with Quizartinib + Phenformin (first compound 0.1 µM); 1.05 in the assay with YM155 + Trametinib (first compound 0.002 µM). For the same cell line, the relative viability is 0.875 in the assay with YM155 + Trametinib (first compound 0.006325 µM); 0.967 with YM155 + Trametinib (first compound 0.02 µM); 1.04 in the assay with YM155 + Trametinib (first compound 0.06325 µM); 0.88 in the assay with YM155 + Pictilisib (first compound 0.002 µM); 0.843 with YM155 + Pictilisib (first compound 0.006325 µM); 0.953 with YM155 + Pictilisib (first compound 0.02 µM). The relative viability with YM155 + Pictilisib (first compound 0.06325 µM) was 0.683; with YM155 + Vorinostat (first compound 0.002 µM) it was 0.364; in the assay with YM155 + Vorinostat (first compound 0.006325 µM) it was 0.491; with YM155 + Vorinostat (first compound 0.02 µM) it was 0.5; in the assay with YM155 + Vorinostat (first compound 0.06325 µM), 0.312.
As to NCI-H661, the relative viability with Quizartinib + Phenformin (first compound 0.001 µM) was 0.274; with Quizartinib + Phenformin (first compound 0.003162 µM) it was 0.289; with Quizartinib + Phenformin (first compound 0.01 µM), 0.3; in the assay with Quizartinib + Phenformin (first compound 0.03162 µM), 0.224; in the assay with Quizartinib + Phenformin (first compound 0.1 µM), 0.194; with YM155 + Trametinib (first compound 0.002 µM), 0.496. In addition, the relative viability was determined as 0.558 with YM155 + Trametinib (first compound 0.006325 µM); 0.598 with YM155 + Trametinib (first compound 0.02 µM); 0.525 in the assay with YM155 + Trametinib (first compound 0.06325 µM); 0.385 with YM155 + Pictilisib (first compound 0.002 µM); 0.422 in the assay with YM155 + Pictilisib (first compound 0.006325 µM); 0.492 with YM155 + Pictilisib (first compound 0.02 µM). For the same cell line, the relative viability in the assay with YM155 + Pictilisib (first compound 0.06325 µM) amounted to 0.453; with YM155 + Vorinostat (first compound 0.002 µM) it was 0.765; with YM155 + Vorinostat (first compound 0.006325 µM), 0.784; in the assay with YM155 + Vorinostat (first compound 0.02 µM), 0.883; in the assay with YM155 + Vorinostat (first compound 0.06325 µM), 0.364.
On to NCI-H727, for which the relative viability is 0.514 with Quizartinib + Phenformin (first compound 0.003162 µM); 0.584 in the assay with Quizartinib + Phenformin (first compound 0.01 µM); 0.52 with Quizartinib + Phenformin (first compound 0.03162 µM); 0.469 with Quizartinib + Phenformin (first compound 0.1 µM); 0.412 with YM155 + Trametinib (first compound 0.002 µM); 0.396 with YM155 + Trametinib (first compound 0.006325 µM). Moreover, the relative viability with YM155 + Trametinib (first compound 0.02 µM) came out at 0.391; with YM155 + Trametinib (first compound 0.06325 µM) it was 0.411; with YM155 + Pictilisib (first compound 0.002 µM), 0.397; with YM155 + Pictilisib (first compound 0.006325 µM), 0.533; in the assay with YM155 + Pictilisib (first compound 0.02 µM) it was 0.446; in the assay with YM155 + Pictilisib (first compound 0.06325 µM) it was 0.375. Further, the relative viability in the assay with YM155 + Vorinostat (first compound 0.002 µM) was 1.32; with YM155 + Vorinostat (first compound 0.006325 µM) it was 1.28; in the assay with YM155 + Vorinostat (first compound 0.02 µM) it was 1.27; with YM155 + Vorinostat (first compound 0.06325 µM), 1.29.
On to NCI-H838, for which the relative viability with Quizartinib + Phenformin (first compound 0.001 µM) is 0.442; with Quizartinib + Phenformin (first compound 0.003162 µM) it was 0.692; with Quizartinib + Phenformin (first compound 0.01 µM), 0.498; with Quizartinib + Phenformin (first compound 0.03162 µM) it was 0.607; with Quizartinib + Phenformin (first compound 0.1 µM) it was 0.329; with YM155 + Trametinib (first compound 0.002 µM), 0.461. The relative viability amounted to 0.505 in the assay with YM155 + Trametinib (first compound 0.006325 µM); 0.508 with YM155 + Trametinib (first compound 0.02 µM); 0.372 with YM155 + Trametinib (first compound 0.06325 µM); 0.386 with YM155 + Pictilisib (first compound 0.002 µM); 0.521 with YM155 + Pictilisib (first compound 0.006325 µM); 0.536 with YM155 + Pictilisib (first compound 0.02 µM). In addition, the relative viability with YM155 + Pictilisib (first compound 0.06325 µM) turned out to be 0.299; with YM155 + Vorinostat (first compound 0.002 µM) it was 0.705; with YM155 + Vorinostat (first compound 0.006325 µM) it was 0.759; with YM155 + Vorinostat (first compound 0.02 µM), 0.68; with YM155 + Vorinostat (first compound 0.06325 µM), 0.377.
For the cell line NCI-H1355, the relative viability was 0.426 with Quizartinib + Phenformin (first compound 0.001 µM); 0.434 in the assay with Quizartinib + Phenformin (first compound 0.003162 µM); 0.437 in the assay with Quizartinib + Phenformin (first compound 0.01 µM); 0.426 in the assay with Quizartinib + Phenformin (first compound 0.03162 µM); 0.415 with Quizartinib + Phenformin (first compound 0.1 µM); 0.509 with YM155 + Trametinib (first compound 0.002 µM). For the same cell line, the relative viability worked out at 0.454 with YM155 + Trametinib (first compound 0.006325 µM); 0.473 with YM155 + Trametinib (first compound 0.02 µM); 0.406 with YM155 + Trametinib (first compound 0.06325 µM); 0.403 with YM155 + Pictilisib (first compound 0.002 µM); 0.484 with YM155 + Pictilisib (first compound 0.006325 µM); 0.462 with YM155 + Pictilisib (first compound 0.02 µM). Besides, the relative viability with YM155 + Pictilisib (first compound 0.06325 µM) amounted to 0.514; in the assay with YM155 + Vorinostat (first compound 0.002 µM), 0.58; in the assay with YM155 + Vorinostat (first compound 0.006325 µM), 0.615; with YM155 + Vorinostat (first compound 0.02 µM) it was 0.718; with YM155 + Vorinostat (first compound 0.06325 µM), 0.635.
As for NCI-H1395, the relative viability with Quizartinib + Phenformin (first compound 0.001 µM) worked out at 0.437; in the assay with Quizartinib + Phenformin (first compound 0.003162 µM), 0.447; with Quizartinib + Phenformin (first compound 0.01 µM) it was 0.46; with Quizartinib + Phenformin (first compound 0.03162 µM) it was 0.468; with Quizartinib + Phenformin (first compound 0.1 µM), 0.494; with YM155 + Trametinib (first compound 0.002 µM) it was 1.04. In addition, the relative viability in the assay with YM155 + Trametinib (first compound 0.006325 µM) is 1.02; with YM155 + Trametinib (first compound 0.02 µM), 1.08; with YM155 + Trametinib (first compound 0.06325 µM), 1.2; with YM155 + Pictilisib (first compound 0.002 µM) it was 0.587; with YM155 + Pictilisib (first compound 0.006325 µM), 0.546; in the assay with YM155 + Pictilisib (first compound 0.02 µM), 0.622. The relative viability is 0.673 with YM155 + Pictilisib (first compound 0.06325 µM); 0.691 with YM155 + Vorinostat (first compound 0.002 µM); 0.727 with YM155 + Vorinostat (first compound 0.006325 µM); 0.864 with YM155 + Vorinostat (first compound 0.02 µM); 0.696 with YM155 + Vorinostat (first compound 0.06325 µM).
For the cell line NCI-H1437, the relative viability in the assay with Quizartinib + Phenformin (first compound 0.001 µM) was 0.274; in the assay with Quizartinib + Phenformin (first compound 0.003162 µM) it was 0.277; with Quizartinib + Phenformin (first compound 0.01 µM), 0.294; with Quizartinib + Phenformin (first compound 0.03162 µM), 0.208; with Quizartinib + Phenformin (first compound 0.1 µM) it was 0.172; with YM155 + Trametinib (first compound 0.002 µM), 0.42. Further, the relative viability with YM155 + Trametinib (first compound 0.006325 µM) came to 0.564; with YM155 + Trametinib (first compound 0.02 µM), 0.534; in the assay with YM155 + Trametinib (first compound 0.06325 µM) it was 0.469; with YM155 + Pictilisib (first compound 0.002 µM) it was 0.417; in the assay with YM155 + Pictilisib (first compound 0.006325 µM) it was 0.404; with YM155 + Pictilisib (first compound 0.02 µM) it was 0.468. Further, the relative viability in the assay with YM155 + Pictilisib (first compound 0.06325 µM) stood at 0.507; with YM155 + Vorinostat (first compound 0.002 µM), 0.83; with YM155 + Vorinostat (first compound 0.006325 µM), 0.809; with YM155 + Vorinostat (first compound 0.02 µM), 0.833; with YM155 + Vorinostat (first compound 0.06325 µM), 0.432.

The record behind these values is the supplement of paper PMC10307832.
